Here are results for 1 molecule from patent US20020009527A1, “CONTAMINATION-RESISTANT ANIMAL FEEDSTUFFS” (BOBBY J BLAND, priority 1992, published 2002).

Where two headings read alike, the source gives them in different places.

Assay [1] has as its system Escherichia coli.
Description: Poultry starter mash (8000 g) was distributed in one gallon glass jars (2000 g/jar). The mash was autoclaved at 121° C. and 15 psi for one hour on two consecutive days. The sterile poultry starter mash was mixed thoroughly and subsampled using a Humboldt sample splitter to obtain seven 500 g subsamples. […] After treatment the samples were stored at 24° C. for 7 days prior to the recontamination.
The identity of an isolate of Escherichia coli obtained from poultry feed was confirmed by biochemical and serological tests. The isolate was used to inoculate milk dilution bottles containing 90 ml of nutrient both. The inoculated bottles were incubated at 35° C. for 18-24 hours. After incubation the contents of several milk dilution bottles were combined in a sterile 1000 ml Erlenmeyer flask, mixed and the level of Escherichia coli determined by serially diluting the nutrient broth with buffered phosphate. The dilutions were plated onto MacConkey's agar. The inoculated plates were incubated at 35° C. for 18-24 hours. After incubation, the number of E. coli colonies was counted.
After seven days of storage, the subsamples (500 g) were individually inoculated with 20 ml of a nutrient broth culture of E. coli (10^6 colonies/ml). The inoculated feed was transferred to sterile one quart containers with screw cap lids. After 24 hours incubation at 25° C., the treatment samples were split to obtain log subsamples. Each subsample was placed into a milk dilution bottle containing 90 ml of buffered phosphate. The bottles were placed on a wrist action shaker and agitated for 30 minutes. The samples were serially diluted with buffered phosphate and the dilutions plated onto MacConkey's agar (MA) or Hektoen Enteric agar (HEA). The inoculated plates were incubated at 35° C. for 18-24 hours. After incubation, the number of E. coli colonies was counted. […] In this procedure a 25 g subsample was incubated in 225 ml lactose broth for 18-20 hours at 35° C. The inoculated broth was streaked on plates of MacConkey's agar and incubated for 24 hours at 35° C.
The procedure of Example 8 was repeated using an inoculum containing 10^4 colonies/ml of E. coli.
The subject of another assay is E. coli. On the procedure: The term “resistant to contamination by pathogenic bacteria” means that a challenge with 1000 colonies per gram of feed results in death of substantially all the bacteria within 48 to 72 hours. […] Sampling procedures for obtaining representative samples of feed are described in Example 16, so that the coefficient of variation can be readily determined.

In a further assay the test system is Salmonella typhimurium. The following applies: hydraulic nozzle; 1.32 lb/ton; inoculated after 7 days storage; 24 h incubation.
For assay [2] the following is noted: 1.0 pound formaldehyde (dry wt.) per ton of feed. The protocol:
Chickens (1,400,000 broilers) were raised with steam pelletized formaldehyde-treated feed and 250,000 broilers were raised with conventional steam pelletized feed. This test was conducted from the time the chicks were a day old until market weight which is 7 to 8 weeks.

For assay [3], the system named is Escherichia coli. Particulars: fine mist (43 microns); all quantity levels. On the procedure: A sterilized poultry starter mash (500 grams/treatment quantity level) was treated with 37 wt. % formaldehyde solution in quantities of 0.66, 1.33 and 2.00 pounds dry weight of formaldehyde per ton. One set of samples was treated with a coarse spray (270 microns) at 1.8 gal/hr and another was treated with fine mist (43 microns) at 25.5 gal/hr. Each sample of 500 grams was challenged with 20 ml of a liquid inoculum of Escherichia coli (10^6 colonies/ml) one week after treatment.

Description for Salmonella typhimurium: Poultry starter mash was distributed in one gallon glass jars (2000 g/jar). The mash was autoclaved at 121° C. and 15 psi for one hour on two consecutive days. The sterile poultry starter mash was mixed thoroughly and subsampled using a Humboldt sample splitter to obtain seven 500 g subsamples. […] After treatment the samples were stored in paper bags at 24° C. prior to the recontamination.
An isolate of Salmonella typhimurium was obtained from poultry feed and was serotyped by the United States Department of Agriculture (USDA) National Veterinary Services Laboratory in Ames, Iowa. The isolate was used to inoculate milk dilution bottles containing 90 ml of nutrient broth. The inoculated bottles were incubated at 35° C. for 18-24 hours. After incubation, the contents of several milk dilution were combined in a sterile 1000 ml Erlenmeyer flask and mixed. The level of Salmonella typhimurium was determined by serially diluting the nutrient broth with buffered phosphate solution and the dilutions plated on modified lysine iron agar. The inoculated plates were incubated at 35° C. for 18-24 hours. After incubation, the number of Salmonella typhimurium colonies was counted.
After 7 days of storage, the subsamples of poultry starter mash (500 g) were individually inoculated with 20 ml of the nutrient broth culture of S. typhimurium (10^3 colonies/gram). […]

For the molecule `C=O` [Formaldehyde, formaldehyde], the E. coli colonies/g with Escherichia coli [1] (atomizing nozzle, 0.66 lb/ton, inoculum 10^6 colonies/ml (Example 8)) was 1.11 × 10^2 COLONIES/GRAM; in the assay with Escherichia coli [1] (hydraulic nozzle, 0.66 lb/ton, inoculum 10^4 colonies/ml (Example 9)), 8.78 × 10^3 COLONIES/GRAM; in the assay with Escherichia coli [1] (hydraulic nozzle, 0.66 lb/ton, inoculum 10^6 colonies/ml (Example 8)) it was 2.74 × 10^5 COLONIES/GRAM; in the assay on Escherichia coli [1] (hydraulic nozzle, 1.32 lb/ton, inoculum 10^4 colonies/ml (Example 9)), 4.33 × 10^3 COLONIES/GRAM; in the assay with Escherichia coli [1] (hydraulic nozzle, 1.32 lb/ton, inoculum 10^6 colonies/ml (Example 8)), 3.67 × 10^3 COLONIES/GRAM; with Escherichia coli [1] (hydraulic nozzle, 2.00 lb/ton, inoculum 10^4 colonies/ml (Example 9)) it was 3.33 × 10^2 COLONIES/GRAM. In addition, in the assay on Escherichia coli [1] (hydraulic nozzle, 2.00 lb/ton, inoculum 10^6 colonies/ml (Example 8)), the E. coli colonies/g is listed as 1.04 × 10^2 COLONIES/GRAM. Further, the “resistance to contamination (time)” value with E. coli (2 lbs. dry wt. of formaldehyde/ton, 2.0% CV) is given as “about 60 days”; with E. coli (4 lbs. dry wt. of formaldehyde per ton of finished feed, 7% CV), “about 30 days”. The “S. typhimurium colonies per gram of feed” value in the assay on Salmonella typhimurium is 2.94 × 10^2 COLONIES/GRAM. In assay [2] (broilers, day old to market weight (7 to 8 weeks)), this molecule showed an MORTALITY of 6%. In addition, in assay [2] (pounds of feed required to produce one pound live weight gain), the “FEED CONVERSION” value was determined as 2.25. In addition, in the assay on Escherichia coli [3], the “further time free of detectable E. coli (test then discontinued)” value was determined as 60 days. In addition, the “time after inoculation until free of detectable E. coli” value with Escherichia coli [3] was not above 48 h.
